SMILES strings stand for the structures.

T1 sequence (Q14191 with tags, fused parts or gaps L1074F limits assumed): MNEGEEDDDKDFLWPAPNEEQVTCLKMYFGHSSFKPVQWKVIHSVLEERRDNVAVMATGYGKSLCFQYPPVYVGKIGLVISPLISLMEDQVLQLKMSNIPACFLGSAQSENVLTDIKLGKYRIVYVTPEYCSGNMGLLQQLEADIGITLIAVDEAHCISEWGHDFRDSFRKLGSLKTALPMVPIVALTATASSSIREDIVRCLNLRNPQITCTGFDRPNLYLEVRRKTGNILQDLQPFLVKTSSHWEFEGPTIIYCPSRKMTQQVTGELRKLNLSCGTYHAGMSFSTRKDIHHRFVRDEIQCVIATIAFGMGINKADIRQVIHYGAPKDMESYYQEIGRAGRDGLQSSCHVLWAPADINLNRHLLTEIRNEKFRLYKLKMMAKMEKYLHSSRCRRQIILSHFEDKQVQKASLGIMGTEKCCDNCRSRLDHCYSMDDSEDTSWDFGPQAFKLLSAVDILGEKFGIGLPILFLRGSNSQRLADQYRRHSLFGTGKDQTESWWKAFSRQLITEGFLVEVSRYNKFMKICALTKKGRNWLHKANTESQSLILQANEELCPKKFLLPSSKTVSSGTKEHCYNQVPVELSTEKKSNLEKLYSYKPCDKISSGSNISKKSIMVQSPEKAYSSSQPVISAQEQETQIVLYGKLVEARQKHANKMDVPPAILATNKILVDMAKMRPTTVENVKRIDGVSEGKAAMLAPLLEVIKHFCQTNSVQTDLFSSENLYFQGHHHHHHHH

The assay addresses T1, human Werner helicase (WRN-BV08, Uniprot Q14191, amino acids 517-1235 with L1074F point mutation) (Homo sapiens, UniProt Q14191, L1074F).
T1 construct: Uniprot Q14191, amino acids 517-1235 with L1074F point mutation; TEV-cleavable 8×His (C, cleaved yes); made in house; host or cells: Sf9 insect cells (baculovirus)
Nature of the assay: WRN (BV08) ADP-Glo Assay. In kind it is biochemical. The following applies: 0.15 nM WRN, 5 μM ATP, 0.1 nM DNA duplex, 15 min preincubation, 60 min at 25° C., pH 7.5, 1% DMSO; read-out: ADP-Glo_hWRN_IC50. Put shortly:
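0.15 nM WRN (aa 517-1235, L1074F, Sf9-expressed, tag cleaved) preincubated 15 min at 25 °C with compound, then 5 μM ATP and 0.1 nM DNA duplex added for 60 min. Buffer: 20 mM Bicine pH 7.5, 1 mM MgCl2, 10 mM KCl, 1 mM TCEP; 1% DMSO. ADP-Glo luminescence; IC50 by 4-parameter fit.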
A general note: In ADP-Glo the light output rises with the ADP produced.
Turning to `N#CCCN(C(=O)Cc1ccc(-c2ccc(F)cc2)cc1)C1C=CS(=O)(=O)C1` (stereo not shown) [I-386, N-(2-cyanoethyl)-N-(1,1-dioxo-2,3-dihydro-1lambda6-thiophen-3-yl)-2-{4′-fluoro-[1,1′-biphenyl]-4-yl}acetamide], the IC50 is above 50 µM.

For `Cc1cccn1-c1ccc(C(C(=O)N(C)C)C(=O)N(Cc2ccnc(C(C)(C)O)c2)C2C=CS(=O)(=O)C2)c(F)c1` (stereo not shown) [I-174, N-(1,1-dioxo-2,3-dihydro-1lambda6-thiophen-3-yl)-2-[2-fluoro-4-(2-methyl-1H-pyrrol-1-yl)phenyl]-N-{[2-(2-hydroxypropan-2-yl)pyridin-4-yl]methyl}-N′,N′-dimethylpropanediamide], the IC50 is 0.5 to 5 µM. Under `COc1cc(CN(C(=O)C(c2ccc(-c3ccc(F)c(F)c3)cc2F)n2cc(C(F)F)cn2)[C@@H]2C=CS(=O)(=O)C2)ccn1` (single isomer, unassigned) [I-701, (2R*)-2-[4-(difluoromethyl)-1H-pyrazol-1-yl]-N-[(3R)-1,1-dioxo-2,3-dihydro-1lambda6-thiophen-3-yl]-N-[(2-methoxypyridin-4-yl)methyl]-2-{3,3′,4′-trifluoro-[1,1′-biphenyl]-4-yl}acetamide] stands below 0.5 µM; under `CCOc1cc(CN(C(=O)Cc2ccc(-n3cccc3)cc2)C2C=CS(=O)(=O)C2)ccn1` (stereo not shown) [I-141, N-(1,1-dioxo-2,3-dihydro-1lambda6-thiophen-3-yl)-N-[(2-ethoxypyridin-4-yl)methyl]-2-[4-(1H-pyrrol-1-yl)phenyl]acetamide], 0.5 to 5 µM; under `COc1cc(CN(C(=O)Cn2cc(-c3ccc(F)c(F)c3)c(C)n2)[C@@H]2C=CS(=O)(=O)C2)ccn1` [I-713, 2-[4-(3,4-difluorophenyl)-3-methyl-1H-pyrazol-1-yl]-N-[(3R)-1,1-dioxo-2,3-dihydro-1lambda6-thiophen-3-yl]-N-[(2-methoxypyridin-4-yl)methyl]acetamide], 10 to 50 µM. Under `CC(C)(O)c1cc(CN(C(=O)Cn2cc(-c3cc(F)c(F)c(F)c3)c(F)n2)[C@@H]2C=CS(=O)(=O)C2)ccn1` [I-832, N-[(3R)-1,1-dioxo-2,3-dihydro-1lambda6-thiophen-3-yl]-2-[3-fluoro-4-(3,4,5-trifluorophenyl)-1H-pyrazol-1-yl]-N-{[2-(2-hydroxypropan-2-yl)pyridin-4-yl]methyl}acetamide] stands below 0.5 µM. Under `O=C(Cc1noc2ccccc12)N(Cc1ccncc1)C1C=CS(=O)(=O)C1` (stereo not shown) [I-516, 2-(1,2-benzoxazol-3-yl)-N-(1,1-dioxo-2,3-dihydro-1lambda6-thiophen-3-yl)-N-[(pyridin-4-yl)methyl]acetamide] stands above 50 µM; under `COc1cc(CN(C(=O)C(OCC2CCOCC2)c2ccc(-c3ccc(F)c(F)c3)cc2F)[C@@H]2C=CS(=O)(=O)C2)ccn1` (stereo partly drawn) [I-811, N-[(3R)-1,1-dioxo-2,3-dihydro-1lambda6-thiophen-3-yl]-N-[(2-methoxypyridin-4-yl)methyl]-2-[(oxan-4-yl)methoxy]-2-{3,3′,4′-trifluoro-[1,1′-biphenyl]-4-yl}acetamide], 0.5 to 5 µM; under `CC(C)(O)c1cc(CN(C(=O)C(OCc2ccccc2)c2ccc(-c3ccc(F)c(F)c3)cc2F)[C@@H]2C=CS(=O)(=O)C2)ccn1` (single isomer, unassigned) [I-814], 0.5 to 5 µM. On to `O=C(Cc1ccc(-n2cccc2)cc1)N(Cc1ccc(Br)cc1)C1C=CS(=O)(=O)C1` (stereo not shown) [I-163, N-[(4-bromophenyl)methyl]-N-(1,1-dioxo-2,3-dihydro-1lambda6-thiophen-3-yl)-2-[4-(1H-pyrrol-1-yl)phenyl]acetamide], for which the IC50 is 0.5 to 5 µM. Regarding `CC(C)c1ccc(CC(=O)N(Cc2ccncc2)C2C=CS(=O)(=O)C2)c(F)c1` (stereo not shown) [I-151, N-(1,1-dioxo-2,3-dihydro-1lambda6-thiophen-3-yl)-2-[2-fluoro-4-(propan-2-yl)phenyl]-N-[(pyridin-4-yl)methyl]acetamide], the IC50 was 0.5 to 5 µM. Under `CC(C)(O)c1cc(CN(C(=O)C(OCC2CC(F)(F)C2)c2ccc(-c3ccc(F)c(F)c3)cc2F)[C@@H]2C=CS(=O)(=O)C2)ccn1` (stereo in doubt) [I-792, rel-2-[(3,3-difluorocyclobutyl)methoxy]-N-[(3R)-1,1-dioxo-2,3-dihydro-1lambda6-thiophen-3-yl]-N-{[2-(2-hydroxypropan-2-yl)pyridin-4-yl]methyl}-2-{3,3′,4′-trifluoro-[1,1′-biphenyl]-4-yl}acetamide] stands 0.5 to 5 µM; under `O=C(/C=C/c1ccccc1)N(Cc1ccncc1)C1C=CS(=O)(=O)C1` (stereo not shown) [I-530, (2E)-N-(1,1-dioxo-2,3-dihydro-1lambda6-thiophen-3-yl)-3-phenyl-N-[(pyridin-4-yl)methyl]prop-2-enamide], above 50 µM. Then `Cc1c(CC(=O)N(Cc2ccncc2)C2C=CS(=O)(=O)C2)nnn1-c1ccccc1` (stereo not shown) [I-434, N-(1,1-dioxo-2,3-dihydro-1lambda6-thiophen-3-yl)-2-(5-methyl-1-phenyl-1H-1,2,3-triazol-4-yl)-N-[(pyridin-4-yl)methyl]acetamide], with above 50 µM; and `O=C(Cn1cc(-c2ccc(F)cc2)cn1)N(Cc1nc(C2CC2)cs1)C1C=CS(=O)(=O)C1` (single isomer, unassigned) [I-602], with below 0.5 µM.

Turning to `COc1cc(CN(C(=O)Cc2ccc(C(F)(F)F)cc2)C2C=CS(=O)(=O)C2)ccn1` (single isomer, unassigned) [I-57], the IC50 was below 0.5 µM. Take `O=C(Cc1ccc(C2CCC2)cc1)N(Cc1ccncc1)C1C=CS(=O)(=O)C1` (stereo not shown) [I-177, 2-(4-cyclobutylphenyl)-N-(1,1-dioxo-2,3-dihydro-1lambda6-thiophen-3-yl)-N-[(pyridin-4-yl)methyl]acetamide]: the IC50 lay within 0.5 to 5 µM.

With `O=C(Cc1ccc(S(F)(F)(F)(F)F)cc1)N(Cc1nn[nH]n1)C1C=CS(=O)(=O)C1` (stereo not shown) [I-757, N-(1,1-dioxo-2,3-dihydro-1lambda6-thiophen-3-yl)-2-[4-(pentafluoro-lambda6-sulfanyl)phenyl]-N-[(2H-1,2,3,4-tetrazol-5-yl)methyl]acetamide], the IC50 was above 50 µM. Under `O=C(N(Cc1ccncc1)C1C=CS(=O)(=O)C1)C(F)(F)n1cc(-c2ccccc2)nn1` (stereo not shown) [I-581, N-(1,1-dioxo-2,3-dihydro-1lambda6-thiophen-3-yl)-2,2-difluoro-2-(4-phenyl-1H-1,2,3-triazol-1-yl)-N-[(pyridin-4-yl)methyl]acetamide] stands above 50 µM.

In the case of `O=C(Cn1cc(-c2ccc(F)c(F)c2)cn1)N(Cc1nc(C2CC2(F)F)cs1)C1C=CS(=O)(=O)C1` (stereo not shown) [I-718, N-{[4-(2,2-difluorocyclopropyl)-1,3-thiazol-2-yl]methyl}-2-[4-(3,4-difluorophenyl)-1H-pyrazol-1-yl]-N-(1,1-dioxo-2,3-dihydro-1lambda6-thiophen-3-yl)acetamide], the IC50 is below 0.5 µM. Turning to `O=C(CCc1cc2ccccc2[nH]1)N(Cc1ccncc1)C1C=CS(=O)(=O)C1` (stereo not shown) [I-396, N-(1,1-dioxo-2,3-dihydro-1lambda6-thiophen-3-yl)-3-(1H-indol-2-yl)-N-[(pyridin-4-yl)methyl]propanamide], the IC50 was above 50 µM. Under `O=C(c1ccncc1)N(CCc1ccc(-n2cccc2)cc1)C1C=CS(=O)(=O)C1` (stereo not shown) [I-553, N-(1,1-dioxo-2,3-dihydro-1lambda6-thiophen-3-yl)-N-{2-[4-(1H-pyrrol-1-yl)phenyl]ethyl}pyridine-4-carboxamide] stands above 50 µM.

For the origin of these results see US20260297070A1, “CYCLIC [COMPOUND LEFT OUT] WRN INHIBITORS” (Nimbus Wadjet, Inc., priority 2023, published 2026).
